Reference: the supplement of paper PMC10331698
± gives the standard deviation of the averaged measurements.

Experiments:
Experiment in all cases: level (log10 ratio to DMSO vehicle control); higher = higher biomarker level / cell amount than vehicle control
[1] = compound: O=C(O)C=C(C(F)(F)F)C(F)(F)F [3,3-Bis(trifluoromethyl)-2-propenoic acid] (in DMSO)
Description: (§1)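 BioMAP Diversity Plus panel of 12 human primary cell co-culture systems (3C, 4H, LPS, SAg, BT, BF4T, BE3C, CASM3C, HDF3CGF, KF3CT, MyoF, Mphg). Compounds were added 1 h before stimulation and left for 24 h (MyoF 48 h; BT 72 h for soluble read-outs or 6 d for IgG). Biomarkers were read by ELISA, cytotoxicity by SRB, PBMC viability and proliferation by Alamar Blue. Each well value was divided by the mean of 8 DMSO control wells on the same plate and log10 transformed; duplicate blinded samples were tested at 4 concentrations.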

Perfluoroundecanoic acid = compound: O=C(O)C(F)(F)C(F)(F)C(F)(F)C(F)(F)C(F)(F)C(F)(F)C(F)(F)C(F)(F)C(F)(F)C(F)(F)F [Perfluoroundecanoic acid] (in DMSO); details: 6700 nM
Description: as §1

[2] = compound: O=S(=O)(O)C(F)(F)C(F)(F)C(F)(F)C(F)(F)C(F)(F)C(F)(F)C(F)(F)F [Perfluoroheptanesulfonic acid] (in DMSO)
Description: as §1

[3] = compound: OCCC(F)(F)C(F)(F)C(F)(F)C(F)(F)F [4:2 Fluorotelomer alcohol] (in DMSO)
Description: as §1

[4] = compound: O=S(=O)(O)CCC(F)(F)C(F)(F)C(F)(F)C(F)(F)C(F)(F)C(F)(F)C(F)(F)C(F)(F)F [8:2 Fluorotelomer sulfonic acid] (in DMSO)
Description: as §1

[5] = compound: OCC(F)(F)OC(F)(F)C(F)(F)OC(F)(F)C(F)(F)OC(F)(F)CO [1H,1H,11H,11H-Perfluorotetraethylene glycol] (in DMSO)
Description: as §1

[6] = compound: CCOC(=O)CC(=O)C(F)(F)C(F)(F)F [Ethyl pentafluoropropionyl acetate] (in DMSO)
Description: as §1

## lMphg:CD62E/E-Selectin
[1]; 6700 nM
  level (log10): -0.049 ± 0.0085
[1]; 20000 nM
  level (log10): -0.068 ± 0.02
[1]; 60000 nM
  level (log10): -0.14 ± 0.034
Perfluoroundecanoic acid
  level (log10): -0.004 ± 0.041
[2]; 1500 nM
  level (log10): -0.029 ± 0.028
[2]; 4400 nM
  level (log10): -0.0015 ± 0.046
[2]; 13000 nM
  level (log10): -0.0135 ± 0.054
[2]; 40000 nM
  level (log10): 0.0415 ± 0.043
[3]; 6700 nM
  level (log10): -0.0075 ± 0.022
[3]; 20000 nM
  level (log10): -0.003 ± 0.013
[3]; 60000 nM
  level (log10): 0.0185 ± 0.0021
[4]; 6700 nM
  level (log10): 0.0165 ± 0.0092
[4]; 20000 nM
  level (log10): 0.048 ± 0.0042
[4]; 60000 nM
  level (log10): 0.103 ± 0.0057
[5]; 6700 nM
  level (log10): -0.056 ± 0.037
[5]; 20000 nM
  level (log10): -0.0635 ± 0.081
[5]; 60000 nM
  level (log10): -0.072 ± 0.086
[6]; 6700 nM
  level (log10): -0.036 ± 0.02
[6]; 20000 nM
  level (log10): -0.0245 ± 0.012
[6]; 60000 nM
  level (log10): 0.0115 ± 0.025

## lMphg:CD69
[1]; 6700 nM
  level (log10): -0.069 ± 0.024
[1]; 20000 nM
  level (log10): -0.0915 ± 0.0078
[1]; 60000 nM
  level (log10): -0.0275 ± 0.067
Perfluoroundecanoic acid
  level (log10): -0.048 ± 0.083
[2]; 1500 nM
  level (log10): -0.014 ± 0.055
[2]; 4400 nM
  level (log10): -0.008 ± 0.027
[2]; 13000 nM
  level (log10): -0.0145 ± 0.00071
[2]; 40000 nM
  level (log10): -0.0155 ± 0.018
[3]; 6700 nM
  level (log10): 0.0115 ± 0.07
[3]; 20000 nM
  level (log10): 0.007 ± 0.041
[3]; 60000 nM
  level (log10): 0.0155 ± 0.0035
[4]; 6700 nM
  level (log10): -0.0695 ± 0.023
[4]; 20000 nM
  level (log10): -0.059 ± 0.0028
[4]; 60000 nM
  level (log10): -0.173 ± 0.025
[5]; 6700 nM
  level (log10): -0.0285 ± 0.023
[5]; 20000 nM
  level (log10): -0.0155 ± 0.016
[5]; 60000 nM
  level (log10): 0.0065 ± 0.06
[6]; 6700 nM
  level (log10): -0.0405 ± 0.0064
[6]; 20000 nM
  level (log10): 0.0005 ± 0.064
[6]; 60000 nM
  level (log10): 0.0075 ± 0.12

## lMphg:CD106/VCAM-1
[1]; 6700 nM
  level (log10): -0.0205 ± 0.005
[1]; 20000 nM
  level (log10): -0.025 ± 0.0099
[1]; 60000 nM
  level (log10): -0.0935 ± 0.0064
Perfluoroundecanoic acid
  level (log10): -0.004 ± 0.0057
[2]; 1500 nM
  level (log10): -0.0135 ± 0.0035
[2]; 4400 nM
  level (log10): -0.0285 ± 0.021
[2]; 13000 nM
  level (log10): -0.0115 ± 0.016
[2]; 40000 nM
  level (log10): -0.019 ± 0.0014
[3]; 6700 nM
  level (log10): -0.0025 ± 0.016
[3]; 20000 nM
  level (log10): 0.0005 ± 0.011
[3]; 60000 nM
  level (log10): 0.0005 ± 0.025
[4]; 6700 nM
  level (log10): -0.0355 ± 0.005
[4]; 20000 nM
  level (log10): -0.042 ± 0.0071
[4]; 60000 nM
  level (log10): -0.08 ± 0.0057
[5]; 6700 nM
  level (log10): -0.015 ± 0.024
[5]; 20000 nM
  level (log10): 0.009 ± 0.05
[5]; 60000 nM
  level (log10): 0 ± 0.04
[6]; 6700 nM
  level (log10): -0.023 ± 0.0028
[6]; 20000 nM
  level (log10): 0.013 ± 0.0028
[6]; 60000 nM
  level (log10): 0.0195 ± 0.005

## lMphg:CXCL8/IL-8
[1]; 6700 nM
  level (log10): 0.081 ± 0.016
[1]; 20000 nM
  level (log10): 0.123 ± 0.014
[1]; 60000 nM
  level (log10): 0.201 ± 0.047
Perfluoroundecanoic acid
  level (log10): 0.01 ± 0.013
[2]; 1500 nM
  level (log10): -0.001 ± 0.038
[2]; 4400 nM
  level (log10): -0.0165 ± 0.0078
[2]; 13000 nM
  level (log10): -0.018 ± 0.023
[2]; 40000 nM
  level (log10): 0.074 ± 0.069
[3]; 6700 nM
  level (log10): 0.003
[3]; 20000 nM
  level (log10): 0.0065 ± 0.033
[3]; 60000 nM
  level (log10): 0.0275 ± 0.035
[4]; 6700 nM
  level (log10): 0.001 ± 0.0085
[4]; 20000 nM
  level (log10): 0.022 ± 0.013
[4]; 60000 nM
  level (log10): 0.0775 ± 0.0035
[5]; 6700 nM
  level (log10): -0.022 ± 0.017
[5]; 20000 nM
  level (log10): -0.034 ± 0.017
[5]; 60000 nM
  level (log10): -0.0265 ± 0.032
[6]; 6700 nM
  level (log10): -0.0295 ± 0.023
[6]; 20000 nM
  level (log10): -0.01 ± 0.0042
[6]; 60000 nM
  level (log10): 0.0095 ± 0.049

## lMphg:IL-1alpha
[1]; 6700 nM
  level (log10): -0.073 ± 0.068
[1]; 20000 nM
  level (log10): -0.0565 ± 0.052
[1]; 60000 nM
  level (log10): -0.043 ± 0.075
Perfluoroundecanoic acid
  level (log10): 0.022 ± 0.045
[2]; 1500 nM
  level (log10): 0.0075 ± 0.036
[2]; 4400 nM
  level (log10): -0.0045 ± 0.028
[2]; 13000 nM
  level (log10): 0 ± 0.042
[2]; 40000 nM
  level (log10): 0.073 ± 0.044
[3]; 6700 nM
  level (log10): -0.0295 ± 0.013
[3]; 20000 nM
  level (log10): -0.0105 ± 0.005
[3]; 60000 nM
  level (log10): 0.0075 ± 0.028
[4]; 6700 nM
  level (log10): -0.019 ± 0.014
[4]; 20000 nM
  level (log10): -0.011 ± 0.028
[4]; 60000 nM
  level (log10): -0.035 ± 0.05
[5]; 6700 nM
  level (log10): 0.012 ± 0.0057
[5]; 20000 nM
  level (log10): 0.0065 ± 0.04
[5]; 60000 nM
  level (log10): 0.0605 ± 0.053
[6]; 6700 nM
  level (log10): -0.0145 ± 0.011
[6]; 20000 nM
  level (log10): -0.016 ± 0.024
[6]; 60000 nM
  level (log10): 0.0045 ± 0.0092

## lMphg:M-CSF
[1]; 6700 nM
  level (log10): -0.033 ± 0.0071
[1]; 20000 nM
  level (log10): -0.021 ± 0.021
[1]; 60000 nM
  level (log10): -0.0325 ± 0.022
Perfluoroundecanoic acid
  level (log10): 0.016 ± 0.02
[2]; 1500 nM
  level (log10): -0.0065 ± 0.023
[2]; 4400 nM
  level (log10): -0.01 ± 0.037
[2]; 13000 nM
  level (log10): -0.0285 ± 0.039
[2]; 40000 nM
  level (log10): -0.0285 ± 0.0035
[3]; 6700 nM
  level (log10): -0.021 ± 0.017
[3]; 20000 nM
  level (log10): -0.003 ± 0.018
[3]; 60000 nM
  level (log10): -0.0025 ± 0.039
[4]; 6700 nM
  level (log10): -0.0075 ± 0.033
[4]; 20000 nM
  level (log10): -0.014 ± 0.013
[4]; 60000 nM
  level (log10): 0.012
[5]; 6700 nM
  level (log10): -0.0215 ± 0.0021
[5]; 20000 nM
  level (log10): -0.0385 ± 0.0078
[5]; 60000 nM
  level (log10): -0.0575 ± 0.044
[6]; 6700 nM
  level (log10): -0.01 ± 0.0099
[6]; 20000 nM
  level (log10): -0.001 ± 0.028
[6]; 60000 nM
  level (log10): 0.005 ± 0.0014

## lMphg:SRB
[1]; 6700 nM
  level (log10): -0.0145 ± 0.013
[1]; 20000 nM
  level (log10): -0.0205 ± 0.0021
[1]; 60000 nM
  level (log10): -0.0205 ± 0.028
Perfluoroundecanoic acid
  level (log10): -0.001 ± 0.011
[2]; 1500 nM
  level (log10): -0.01 ± 0.013
[2]; 4400 nM
  level (log10): -0.0055 ± 0.011
[2]; 13000 nM
  level (log10): 0.0015 ± 0.0035
[2]; 40000 nM
  level (log10): 0.003 ± 0.0057
[3]; 6700 nM
  level (log10): 0.001 ± 0.0099
[3]; 20000 nM
  level (log10): 0.0015 ± 0.0035
[3]; 60000 nM
  level (log10): 0.004 ± 0.0071
[4]; 6700 nM
  level (log10): -0.006 ± 0.02
[4]; 20000 nM
  level (log10): -0.013 ± 0.017
[4]; 60000 nM
  level (log10): -0.029 ± 0.0057
[5]; 6700 nM
  level (log10): -0.009 ± 0.011
[5]; 20000 nM
  level (log10): -0.024 ± 0.0042
[5]; 60000 nM
  level (log10): -0.047 ± 0.0099
[6]; 6700 nM
  level (log10): 0.005 ± 0.0071
[6]; 20000 nM
  level (log10): -0.0005 ± 0.0078
[6]; 60000 nM
  level (log10): 0.0055 ± 0.0035

## lMphg:SRB-Mphg
[1]; 6700 nM
  level (log10): -0.032
[1]; 20000 nM
  level (log10): -0.017 ± 0.014
[1]; 60000 nM
  level (log10): 0.0035 ± 0.012
Perfluoroundecanoic acid
  level (log10): -0.019 ± 0.016
[2]; 1500 nM
  level (log10): -0.0005 ± 0.016
[2]; 4400 nM
  level (log10): -0.0025 ± 0.036
[2]; 13000 nM
  level (log10): 0.002 ± 0.0099
[2]; 40000 nM
  level (log10): -0.0005 ± 0.036
[3]; 6700 nM
  level (log10): -0.007 ± 0.03
[3]; 20000 nM
  level (log10): -0.004 ± 0.018
[3]; 60000 nM
  level (log10): 0.016 ± 0.017
[4]; 6700 nM
  level (log10): 0.003 ± 0.0028
[4]; 20000 nM
  level (log10): -0.012 ± 0.014
[4]; 60000 nM
  level (log10): -0.027 ± 0.013
[5]; 6700 nM
  level (log10): 0 ± 0.0042
[5]; 20000 nM
  level (log10): -0.011 ± 0.0028
[5]; 60000 nM
  level (log10): -0.077 ± 0.0028
[6]; 6700 nM
  level (log10): -0.0015 ± 0.018
[6]; 20000 nM
  level (log10): -0.0055 ± 0.005
[6]; 60000 nM
  level (log10): -0.012 ± 0.02
